pIC50: −log10 of the molar value. A value given as a limit tells only on which side of the number the result lay.

Results on nine compounds are retold here after patent US7547680B2, “Benzimidazole derivatives and medical uses thereof” (Kissei Pharmaceuticals, Co., Ltd., priority 2004, dated 2009).

Assay [1] deals with T1, human CNT2 (Homo sapiens, UniProt O43868, I160M/P22L/S45C).
T1 construct: expressed in transfected cells; host or cells: COS-7 cells (RIKEN CELL BANK RCB0539), transient lipofection of pCI-neo plasmid
T1 sequence (O43868 1-658 P22L/S45C/I160M): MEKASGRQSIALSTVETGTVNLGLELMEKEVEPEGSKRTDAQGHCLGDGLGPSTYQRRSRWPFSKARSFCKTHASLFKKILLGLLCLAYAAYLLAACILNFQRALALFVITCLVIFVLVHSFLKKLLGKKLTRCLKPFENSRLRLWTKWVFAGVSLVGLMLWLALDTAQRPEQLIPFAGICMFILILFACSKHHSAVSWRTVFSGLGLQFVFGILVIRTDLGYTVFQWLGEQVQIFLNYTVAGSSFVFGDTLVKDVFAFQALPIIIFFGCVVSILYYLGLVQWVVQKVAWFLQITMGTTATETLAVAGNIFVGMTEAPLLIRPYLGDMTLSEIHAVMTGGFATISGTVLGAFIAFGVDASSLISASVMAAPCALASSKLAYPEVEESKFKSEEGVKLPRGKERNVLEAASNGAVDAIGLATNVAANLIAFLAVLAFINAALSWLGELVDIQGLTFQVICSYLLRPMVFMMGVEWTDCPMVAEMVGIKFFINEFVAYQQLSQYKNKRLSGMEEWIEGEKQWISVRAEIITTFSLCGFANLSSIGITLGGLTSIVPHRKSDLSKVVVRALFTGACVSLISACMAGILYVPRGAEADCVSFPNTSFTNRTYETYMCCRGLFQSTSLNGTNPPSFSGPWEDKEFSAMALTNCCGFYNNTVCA
The assay is described as follows: Inhibitory activity against uptake of adenosine through human CNT2. The format is cell-based. As to conditions: COS-7 cells transiently expressing human CNT2; adenosine 10 μM; NBMPR 10 μM; incubation 30 minutes at 37° C. On the procedure:
Human CNT2 cDNA was obtained by PCR amplification of human kidney cDNA (CLONTECH). PCR reaction solution contained 1 μL cDNA, 2 units Platinum taq DNA polymerase high fidelity (Invitrogen), 1 μM primers (Forward: 5′-AGGAGCCAGAGGGAATCAAT-3′, Reverse: 5′-ACATCTTGGTGAGTGAGTTG-3′). Amplifications for 1 cycle at 94° C. for 2 minutes, 32 cycles at 94° C. for 30 seconds, 58° C. for 30 seconds and 68° C. for 3 minutes were performed and PCR products were ligated into PCR-II-TOPO vector (Invitrogen). PCR reaction was performed with primers containing restriction enzyme sites and the constructed plasmid as a template. PCR reaction solution contained 100 ng plasmid, 2 units Pyrobest DNA polymerase (Takara), 330 nM primers (Forward: 5′-CCGCTCGAGAGGAGCCAGAGGGAATCAAT-3′, Reverse: 5′-CGTCTAGAACATCTTGGTGAGTGAGTTG-3′). Amplifications for 1 cycle at 95° C. for 3 minutes, 15 cycles at 98° C. for 10 seconds, 60° C. for 30 seconds and 72° C. for 1 minute and 1 cycle at 72° C. for 7 minutes were performed, and the PCR products were ligated into PCI-neo mammalian expression vector (Promega). The amino acid sequence of cloned human CNT2 was substituted at P22L (codon, CCG to CTG), S45C (codon, AGC to TGC) and I160M (codon, ATA to ATG) compared to a reported amino acid sequence for human CNT2 (NCBI Accession No. AAC51930).
Expression plasmid of human CNT2 was transfected into COS-7 cells (RIKEN CELL BANK RCB0539) by lipofection method. LIPOFECTAMINE 2000 (Invitrogen) was used as a lipofection reagent. COS-7 cells were diluted in D-MEM (Invitrogen) containing 10% fetal calf serum (Sanko Junyaku) at 5×10^5/1 mL, and seeded into collagen-coated 96-well plates (IWAKI) at 100 μL/well and cultured at 37° C. for 2 hours with 5% CO2 condition. For each well, 0.6 μL of LIPOFECTAMINE 2000 (Invitrogen) was diluted in 25 μL of OPTI-MEM (Invitrogen), and incubated for 7 minutes at room temperature (hereinafter referred to as Lipo 2000-OPTI). For each well, 0.3 μg of plasmid was diluted in 25 μL of OPTI-MEM (Invitrogen), and the solution was added to the Lipo 2000-OPTI and mixed gently and incubated for 30 minutes at room temperature, and was transferred 50 μL for each well to culture medium. The cells were incubated at 37° C. with 5% CO2 condition for 2 days, and used for the uptake assays.
An Uptake buffer was prepared by addition of a mixture of non-radioisotope labeled (Sigma) and ^14C-labeled (Amersham Biosciences) adenosine at the final concentration of 10 μM into a buffer, pH 7.4, containing 140 mM sodium chloride, 2 mM potassium chloride, 1 mM calcium chloride, 1 mM magnesium chloride, 10 mM HEPES 2-[4-(2-hydroxyethyl)-1-piperazinyl]ethane sulfonic acid, 5 mM tris(hydroxymethyl)aminomethane and 5 mM glucose. For measurement of basal uptake, Basal uptake measurement buffer, which contained 140 mM choline chloride instead of sodium chloride was prepared. […]. After removing culture medium of human CNT2 transiently expressing cells, Pretreatment buffer (Basal uptake measurement buffer without adenosine and glucose) was added to wells at 200 μL/well and incubated at 37° C. for 10 minutes. After repeating the same step again, Pretreatment buffer was removed and Measurement buffers and Basal uptake measurement buffer were added at 75 μL/well and incubated at 37° C. After incubation for 30 minutes, Measurement buffers and Basal uptake measurement buffer were removed, and the cells were washed with Washing buffer (Basal uptake measurement buffer with non-radioisotope labeled adenosine at 10 μM) at 200 μL/well twice. The cells were solubilized with 0.2 mol/L sodium hydroxide at 75 μL/well, and the cell lysates were transferred into PicoPlates (Perkin Elmer). After mixing with 150 μL of MicroScint-40 (Perkin Elmer), radioactivity was measured by means of scintillation counter (Perkin Elmer). […]

Assay [2] in a line: Effects of CNT2 inhibitors on plasma uric acid level (purine tolerance test in rats). It counts as in vivo. Conditions: Male SD-IGS rats; oxonic acid 100 mg/kg s.c.; purine mix 50 mg/kg and test compound 10 mg/kg orally; blood after 1 hour; control group = 100%; Example 28 by HPLC, Examples 89 and 90 by phosphotungstic acid method. Here is the method: Male SD-IGS rats (5 weeks old) which were fasted overnight, were subcutaneously treated with oxonic acid (Aldrich; 100 mg/kg), and after 1 hour, purine mix (Adenosine:Inosine:Guanosine=1:1:1 (Adenosine (Sigma), Inosine (WAKO), Guanosine (ICN); 50 mg/kg) and test compounds (10 mg/kg) were orally administrated simultaneously. A control group was treated with oxonic acid and the purine mix, and a group administrated only oxonic acid represented endogenous plasma uric acid value. After 1 hour, blood was collected from the abdominal aorta under ether anesthesia, and the plasma was collected with Venoject II vacuum blood collecting tube (Terumo, VP-FH052). According to the method described in Journal of Chromatography B, Vol. 744 (2000), pp. 129-138, plasma uric acid level in a compound of Example 28 was measured by using HPLC method mentioned below. Plasma uric acid levels in compounds of Examples 89 and 90 were measured by phosphotungstic acid method. Uric acid-Test Wako (WAKO) was used as a measurement reagent. As there is no difference of uric acid values between the HPLC method and the phosphotungstic acid method, uric acid value can be measured by either of both methods (for example, see the above Management guideline, pp. 18-19). The difference between plasma uric acid value in each study group and endogenous plasma uric acid value was calculated on the basis of 100% in the control group.
Theophylline (10 μg) as an internal standard substance was added to 0.1 mL of plasma collected with the above method, and then the samples were deproteinized with 1 mL of methanol. After the samples were centrifuged, the methanol layers were evaporated to dryness under a stream of nitrogen. […] Plasma uric acid concentration was determined by HPLC method according to the condition described below. […]
• Column: Inertsil ODS-2 (4.6×250 mm) • Mobile phase • A solution: acetonitrile • B solution: 10 mM phosphate buffer (pH 3.0) • A linear gradient elution method: A solution 2% to A solution 22% (25 minutes) • Column temperature: 40° C. • Flow rate: 0.5 mL/minute • Detection absorbance: 284 nm

Assay [3] has as its target T2, ENT2 (Homo sapiens, UniProt Q14542).
T2 sequence (Q14542 1-456): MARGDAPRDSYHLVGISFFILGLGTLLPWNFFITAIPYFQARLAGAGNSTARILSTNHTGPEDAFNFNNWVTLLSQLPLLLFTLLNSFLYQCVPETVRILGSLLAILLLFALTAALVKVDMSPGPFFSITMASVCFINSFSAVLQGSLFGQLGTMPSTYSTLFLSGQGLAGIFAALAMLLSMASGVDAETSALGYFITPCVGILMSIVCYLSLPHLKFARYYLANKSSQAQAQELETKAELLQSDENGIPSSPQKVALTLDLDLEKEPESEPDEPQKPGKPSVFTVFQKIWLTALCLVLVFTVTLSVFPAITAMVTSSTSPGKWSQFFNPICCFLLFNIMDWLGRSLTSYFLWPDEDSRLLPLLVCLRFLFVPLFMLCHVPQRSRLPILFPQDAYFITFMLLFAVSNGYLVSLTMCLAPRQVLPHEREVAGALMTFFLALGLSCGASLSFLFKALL
Conditions: ENT2, high concentration of NBMPR; cited from earlier work.

In the case of `NC(=O)C1CCN(CCCOc2cccc(CNc3nc4ccccc4n3[C@@H]3O[C@H](CO)[C@@H](O)[C@H]3O)c2)CC1` [Example 89, 2-{3-[3-(4-Carbamoylpiperidin-1-yl)propoxy]benzylamino}-1-(β-D-ribofuranosyl)-1H-benzimidazole], the pIC50 (usually −log10 of the IC50, conventionally taken in molar units) in assay [1] is 7.26. For the same compound, in assay [2], the “Percentage of increment of plasma uric acid level (%)” value (“Percentage of increment … (%)” below) is recorded as 24.9% (p < 0.01).
Compound `CN(C)CCCOc1cccc(CNc2nc3ccccc3n2[C@@H]2O[C@H](CO)[C@@H](O)[C@H]2O)c1` [Example 90] had a pIC50 in assay [1] of 6.74. Besides, the “Percentage of increment … (%)” value in assay [2] was 45.6% (p < 0.05).
`NCCCOc1cc(CNc2nc3ccccc3n2[C@@H]2O[C@H](CO)[C@@H](O)[C@H]2O)ccc1-c1ccccc1` [Example 51, 2-[3-(3-Aminopropoxy)-4-phenylbenzylamino]-1-(β-D-ribofuranosyl)-1H-benzimidazole] showed a pIC50 in assay [1] of 8.05.
As to `C[N+](C)(CCO)CCCOc1cccc(CNc2nc3ccccc3n2[C@@H]2O[C@H](CO)[C@@H](O)[C@H]2O)c1` [Example 93], the pIC50 in assay [1] was 6.76.
In the case of `CCCCOc1ccc(CNc2nc3ccccc3n2[C@@H]2O[C@H](CO)[C@@H](O)[C@H]2O)cc1OCCCCO` [Example 37], in assay [1], the negative logarithm of the IC50 (pIC50) is 6.67.
In assay [1], `OCCCCOc1cc(CNc2nc3ccccc3n2[C@@H]2O[C@H](CO)[C@@H](O)[C@H]2O)ccc1-c1ccccc1` [Example 28, 2-[3-(4-Hydroxybutoxy)-4-phenylbenzylamino]-1-(β-D-ribofuranosyl)-1H-benzimidazole] showed a pIC50 of 7.34. In assay [2], the “Percentage of increment … (%)” value is 15.2% (p < 0.01).
`CCCOc1ccc(CNc2nc3ccccc3n2[C@@H]2O[C@H](CO)[C@@H](O)[C@H]2O)cc1OCCCCO` [Example 36] gave a negative-log IC50 (pIC50) in assay [1] of 6.82.
In turn, `CCOc1ccc(CNc2nc3ccccc3n2[C@@H]2O[C@H](CO)[C@@H](O)[C@H]2O)cc1OCCCCO` [Example 34, 2-[4-Ethoxy-3-(4-hydroxybutoxy)benzylamino]-1-(β-D-ribofuranosyl)-1H-benzimidazole] had a pIC50 in assay [1] of 6.98.
As to `O=[N+]([O-])c1ccc(CSc2ncnc3c2ncn3C2OC(CO)C(O)C2O)cc1` (stereo not drawn) [NBMPR, nitrobenzylthioinosine], the pIC50 in assay [3] was less than 6.00.
